Reference: patent US12023335B2, “Method for treating pancreatic cancer” (PTC THERAPEUTICS, INC., priority 2018, dated 2024)

How the values were obtained:
P-glycoprotein = molecular target: T1, P-glycoprotein (Homo sapiens, UniProt P08183); test: P-glycoprotein substrate activity experiment (CC50 ratio MDCK-P-gp vs MDCK-WT); format: in vitro ADME; details: 72 hours, CellTiter-Glo (FIG. 4b)
T1 construct: host or cells: MDCKII-mdr1 (canine kidney MDCKII cells; MDCKII-wt as control)
Method: MDCKII-mdr1 and MDCKII-wt cells were purchased from the Netherlands Cancer Institute, NKI-AVL. The cells were cultivated in Dulbecco's modified essential medium (DMEM), supplemented with 10% FBS and 1% Penn-Strep, and used between passage 3-9. Cells were seeded at a density of 3×10^3 cells/well in 96-well tissue culture treated plates. After 4 hours to allow cells to attach, cells were treated with test compound in the presence or absence of the P-glycoprotein inhibitor Valspodar. The plates were incubated at 37° C., 5% CO2 for 72 hours and ATP was measured vialuminescence using CellTiter-Glo® reagent (Promega). (FIG. 4b)

advanced PDA = details: cited from earlier work
PDA tumors in KPC mice = test: KPC intervention/survival study; format: in vivo; details: KPC mice (FIGS. 9a, 9b)
Method: Tumor formation in KPC mice was monitored by weekly palpation until the detection of a mass. Upon positive palpation, the mass was monitored by twice weekly ultrasound until the tumor reached an enrollable size of 4-7 mm average diameter. Once enrollable, KPC mice were randomly enrolled into a treatment arm of the intervention study. Mice were treated with vehicle, Compound 1 (17 mg/kg, PO, b.i.w.), gemcitabine alone (100 mg/kg, IP, b.i.w.), or Compound 1+gemcitabine. Mice receiving Compound 1 also received gemcitabine vehicle (saline, IP, b.i.w.) at a volume (μL) of 50× body weight (g). Mice receiving gemcitabine also received Compound 1 vehicle (0.5% hydroxypropylmethylcellulose with 0.1% Tween80 (w/v), PO, b.i.w.) at a volume (μL) of 5.7× body weight (g). All drug and vehicle combinations were administered simultaneously.
Tumor ultrasonography and volume quantification were carried out as described in Sastra S A, Olive K P, Quantification of murine pancreatic tumors by high-resolution ultrasound, Methods Mol Biol 2013; 980:249-66. […]
To prepare samples for immunohistochemistry, tissues were first fixed overnight in 10% phosphate-buffered formalin and then stored in 70% ethanol for long-term storage. […] Next, antigen retrieval was carried out in an experimentally determined, antibody-specific antigen retrieval buffer (usually 10 mM citrate, pH 6.0 or 10 mM Tris, pH 10.0). […]

T1 sequence (P08183 whole entry): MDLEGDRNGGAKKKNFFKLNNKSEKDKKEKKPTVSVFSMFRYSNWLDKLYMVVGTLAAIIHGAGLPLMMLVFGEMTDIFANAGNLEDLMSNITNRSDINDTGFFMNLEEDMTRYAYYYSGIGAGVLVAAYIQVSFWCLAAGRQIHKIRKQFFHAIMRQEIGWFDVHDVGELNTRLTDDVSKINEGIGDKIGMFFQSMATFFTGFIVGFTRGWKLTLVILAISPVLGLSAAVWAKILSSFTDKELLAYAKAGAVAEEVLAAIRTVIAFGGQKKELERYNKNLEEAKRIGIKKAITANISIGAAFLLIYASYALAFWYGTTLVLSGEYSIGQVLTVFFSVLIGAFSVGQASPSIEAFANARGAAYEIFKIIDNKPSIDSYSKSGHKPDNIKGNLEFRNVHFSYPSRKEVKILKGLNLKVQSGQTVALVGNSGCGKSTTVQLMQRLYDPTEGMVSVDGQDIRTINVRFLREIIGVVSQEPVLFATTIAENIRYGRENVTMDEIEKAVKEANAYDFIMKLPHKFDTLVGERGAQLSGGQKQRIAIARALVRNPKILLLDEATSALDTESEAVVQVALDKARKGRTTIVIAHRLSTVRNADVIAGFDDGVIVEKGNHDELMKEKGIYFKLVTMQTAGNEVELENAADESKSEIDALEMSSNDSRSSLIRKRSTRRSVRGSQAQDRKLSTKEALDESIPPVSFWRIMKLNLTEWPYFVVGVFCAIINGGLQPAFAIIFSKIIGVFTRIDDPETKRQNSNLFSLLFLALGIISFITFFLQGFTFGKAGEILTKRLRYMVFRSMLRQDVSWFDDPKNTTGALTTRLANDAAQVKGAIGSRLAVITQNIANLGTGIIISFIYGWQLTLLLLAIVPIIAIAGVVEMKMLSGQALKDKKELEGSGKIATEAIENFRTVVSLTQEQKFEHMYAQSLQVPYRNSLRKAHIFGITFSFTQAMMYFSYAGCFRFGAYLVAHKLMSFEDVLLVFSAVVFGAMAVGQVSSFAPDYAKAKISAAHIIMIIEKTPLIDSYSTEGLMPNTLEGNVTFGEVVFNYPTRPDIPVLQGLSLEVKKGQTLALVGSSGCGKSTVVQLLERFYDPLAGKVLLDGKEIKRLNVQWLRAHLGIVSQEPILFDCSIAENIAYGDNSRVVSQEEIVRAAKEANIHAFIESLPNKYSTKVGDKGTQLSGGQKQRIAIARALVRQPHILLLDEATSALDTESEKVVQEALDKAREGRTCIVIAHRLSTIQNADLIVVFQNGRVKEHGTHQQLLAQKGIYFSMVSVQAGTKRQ

Structure (SMILES): Cc1nc2cc(F)c(F)cc2n1-c1cncc(Nc2ccc(C(F)(F)F)cc2)n1 [Compound 2, 6-(5,6-difluoro-2-methyl-1H-benzo[d]imidazol-1-yl)-N-(4-(trifluoromethyl)phenyl)pyrazin-2-amine, reference compound]
- PGP substrate activity (ratio of CC50 values MDCK-P-gp vs MDCK-WT) (P-glycoprotein): do not function as a PGP substrate

Structure (SMILES): C#Cc1cccc(Nc2ncnc3cc(OCCOC)c(OCCOC)cc23)c1 [Tarceva, erlotinib]
- additional survival benefit, average (advanced PDA; when combined with gemcitabine): 10 days

Structure (SMILES): CN(C)CCCN1c2ccccc2Sc2ccc(Cl)cc21 [chlorpromazine, reference compound]
- PGP substrate activity (ratio of CC50 values MDCK-P-gp vs MDCK-WT) (P-glycoprotein): do not function as a PGP substrate

Structure (SMILES): Nc1ccn([C@@H]2O[C@H](CO)[C@@H](O)C2(F)F)c(=O)n1 [gemcitabine, reference compound]
- apoptotic cell population in stained tumor sections (PDA tumors in KPC mice): induced apoptotic cell population
- extension of survival (advanced PDA; national standard-of-care therapy): modestly extends survival by a few weeks
